Reference: ChEMBL document CHEMBL3994622, “Design and synthesis of new RAF kinase-inhibiting antiproliferative quinoline derivatives. Part 2: Diarylurea derivatives” (Eur J Med Chem, 2017)

Legend:
Type in all cases: functional
NCI-H23 [1] = assay: Growth inhibition of human NCI-H23 cells assessed as cell growth at 0.003 uM incubated for 48 hrs by sulforhodamine B assay relative to control; conditions: NCI-H23, 48 h, read-out: Activity
SK-MEL-2 = assay: Growth inhibition of human SK-MEL-2 cells assessed as cell growth at 0.003 uM incubated for 48 hrs by sulforhodamine B assay relative to control; conditions: SK-MEL-2, 48 h, read-out: Activity
OVCAR-5 [2] = assay: Growth inhibition of human OVCAR5 cells assessed as cell growth at 0.003 uM incubated for 48 hrs by sulforhodamine B assay relative to control; conditions: OVCAR-5, 48 h, read-out: Activity
OVCAR-8 = assay: Growth inhibition of human OVCAR8 cells assessed as cell growth at 0.003 uM incubated for 48 hrs by sulforhodamine B assay relative to control; conditions: OVCAR-8, 48 h, read-out: Activity
HL-60(TB) = assay: Growth inhibition of human HL-60(TB) cells assessed as cell growth at 0.03 uM incubated for 48 hrs by sulforhodamine B assay relative to control; conditions: HL-60, 48 h, read-out: Activity
A549 = assay: Growth inhibition of human A549/ATCC cells assessed as cell growth at 0.03 uM incubated for 48 hrs by sulforhodamine B assay relative to control; conditions: A549, 48 h, read-out: Activity
HCT-116 = assay: Growth inhibition of human HCT116 cells assessed as cell growth at 0.03 uM incubated for 48 hrs by sulforhodamine B assay relative to control; conditions: HCT-116, 48 h, read-out: Activity
SK-MEL-5 [3] = assay: Growth inhibition of human SK-MEL-5 cells assessed as cell growth at 0.03 uM incubated for 48 hrs by sulforhodamine B assay relative to control; conditions: SK-MEL-5, 48 h, read-out: Activity
SK-OV-3 = assay: Growth inhibition of human SKOV3 cells assessed as cell growth at 0.03 uM incubated for 48 hrs by sulforhodamine B assay relative to control; conditions: SK-OV-3, 48 h, read-out: Activity
CCRF-CEM = assay: Growth inhibition of human CCRF-CEM cells assessed as cell growth at 0.3 uM incubated for 48 hrs by sulforhodamine B assay relative to control; conditions: read-out: Activity
NCI-H23 [4] = assay: Growth inhibition of human NCI-H23 cells assessed as cell growth at 0.3 uM incubated for 48 hrs by sulforhodamine B assay relative to control; conditions: NCI-H23, 48 h, read-out: Activity
NCI-H460 = assay: Growth inhibition of human NCI-H460 cells assessed as cell growth at 0.3 uM incubated for 48 hrs by sulforhodamine B assay relative to control; conditions: NCI-H460, 48 h, read-out: Activity
Malme-3M = assay: Growth inhibition of human MALME-3M cells assessed as cell growth at 0.3 uM incubated for 48 hrs by sulforhodamine B assay relative to control; conditions: read-out: Activity
NCI-H522 = assay: Growth inhibition of human NCI-H522 cells assessed as cell growth at 3 uM incubated for 48 hrs by sulforhodamine B assay relative to control; conditions: NCI-H522, 48 h, read-out: Activity
IGROV-1 [5] = assay: Growth inhibition of human IGROV1 cells assessed as cell growth at 30 uM incubated for 48 hrs by sulforhodamine B assay relative to control; conditions: IGROV-1, 48 h, read-out: Activity
Hs-578T = assay: Growth inhibition of human Hs 578T cells assessed as cell growth at 30 uM incubated for 48 hrs by sulforhodamine B assay relative to control; conditions: read-out: Activity
MDA-MB-231 = assay: Growth inhibition of human MDA-MB-231 cells assessed as cell growth at 0.01 uM incubated for 48 hrs by sulforhodamine B assay relative to control; conditions: MDA-MB-231, 48 h, read-out: Activity
RPMI-8226 = assay: Growth inhibition of human RPMI8226 cells assessed as cell growth at 0.1 uM incubated for 48 hrs by sulforhodamine B assay relative to control; conditions: RPMI-8226, 48 h, read-out: Activity
NCI-H23 [6] = assay: Growth inhibition of human NCI-H23 cells assessed as cell growth at 0.1 uM incubated for 48 hrs by sulforhodamine B assay relative to control; conditions: NCI-H23, 48 h, read-out: Activity
OVCAR-5 [7] = assay: Growth inhibition of human OVCAR5 cells assessed as cell growth at 0.1 uM incubated for 48 hrs by sulforhodamine B assay relative to control; conditions: OVCAR-5, 48 h, read-out: Activity
ACHN = assay: Growth inhibition of human ACHN cells assessed as cell growth at 0.1 uM incubated for 48 hrs by sulforhodamine B assay relative to control; conditions: read-out: Activity
RXF 393 = assay: Growth inhibition of human RXF393 cells assessed as cell growth at 0.1 uM incubated for 48 hrs by sulforhodamine B assay relative to control; conditions: RXF 393, 48 h, read-out: Activity
TK-10 [8] = assay: Growth inhibition of human TK10 cells assessed as cell growth at 0.1 uM incubated for 48 hrs by sulforhodamine B assay relative to control; conditions: TK-10, 48 h, read-out: Activity
T47D [9] = assay: Growth inhibition of human T47D cells assessed as cell growth at 0.1 uM incubated for 48 hrs by sulforhodamine B assay relative to control; conditions: read-out: Activity
SK-MEL-28 = assay: Growth inhibition of human SK-MEL-28 cells assessed as cell growth at 1 uM incubated for 48 hrs by sulforhodamine B assay relative to control; conditions: SK-MEL-28, 48 h, read-out: Activity
SK-MEL-5 [10] = assay: Growth inhibition of human SK-MEL-5 cells assessed as cell growth at 1 uM incubated for 48 hrs by sulforhodamine B assay relative to control; conditions: SK-MEL-5, 48 h, read-out: Activity
IGROV-1 [11] = assay: Growth inhibition of human IGROV1 cells assessed as cell growth at 1 uM incubated for 48 hrs by sulforhodamine B assay relative to control; conditions: IGROV-1, 48 h, read-out: Activity
TK-10 [12] = assay: Growth inhibition of human TK10 cells assessed as cell growth at 1 uM incubated for 48 hrs by sulforhodamine B assay relative to control; conditions: TK-10, 48 h, read-out: Activity
UO-31 = assay: Growth inhibition of human UO31 cells assessed as cell growth at 1 uM incubated for 48 hrs by sulforhodamine B assay relative to control; conditions: UO-31, 48 h, read-out: Activity
HOP-92 = assay: Growth inhibition of human HOP92 cells assessed as cell growth at 10 uM incubated for 48 hrs by sulforhodamine B assay relative to control; conditions: HOP-92, 48 h, read-out: Activity
M14 = assay: Growth inhibition of human M14 cells assessed as cell growth at 10 uM incubated for 48 hrs by sulforhodamine B assay relative to control; conditions: M14, 48 h, read-out: Activity
BT-549 = assay: Growth inhibition of human BT549 cells assessed as cell growth at 10 uM incubated for 48 hrs by sulforhodamine B assay relative to control; conditions: BT-549, 48 h, read-out: Activity
T47D [13] = assay: Growth inhibition of human T47D cells assessed as cell growth at 100 uM incubated for 48 hrs by sulforhodamine B assay relative to control; conditions: read-out: Activity
MDA-MB-468 = assay: Growth inhibition of human MDA-MB-468 cells incubated for 48 hrs by sulforhodamine B assay; conditions: MDA-MB-468, 48 h

Row | Compound | growth at 0.003 µM (NCI-H23 [1]) [%] | growth at 0.003 µM (SK-MEL-2) [%] | growth at 0.003 µM (OVCAR-5 [2]) [%] | growth at 0.003 µM (OVCAR-8) [%] | growth at 0.03 µM (HL-60(TB)) [%] | growth at 0.03 µM (A549) [%] | growth at 0.03 µM (HCT-116) [%] | growth at 0.03 µM (SK-MEL-5 [3]) [%] | growth at 0.03 µM (SK-OV-3) [%] | growth at 0.3 µM (CCRF-CEM) [%] | growth at 0.3 µM (NCI-H23 [4]) [%] | growth at 0.3 µM (NCI-H460) [%] | growth at 0.3 µM (Malme-3M) [%] | growth at 3 µM (NCI-H522) [%] | growth at 30 µM (IGROV-1 [5]) [%] | growth at 30 µM (Hs-578T) [%] | growth at 0.01 µM (MDA-MB-231) [%] | growth at 0.1 µM (RPMI-8226) [%] | growth at 0.1 µM (NCI-H23 [6]) [%] | growth at 0.1 µM (OVCAR-5 [7]) [%] | further results
1 | COc1cc2cc(Oc3ccc(NC(=O)Nc4ccc(Cl)c(C(F)(F)F)c4)cc3)c(C)nc2cc1OC | 97 | 96 | 96 | 94 | 97 | 100 | 91 | 92 | 100 | 101 | 92 | 100 | 110 | -8 | -42 | -53 | – | – | – | – | –
2 | COc1cc2cc(Oc3ccc(NC(=O)Nc4ccc(Cl)c(Cl)c4)cc3)c(C)nc2cc1OC | – | – | – | – | – | – | – | – | – | – | – | – | – | – | – | – | 93 | 101 | 93 | 104 | growth at 0.1 µM (ACHN): 105%; growth at 0.1 µM (RXF 393): 111%; growth at 0.1 µM (TK-10 [8]): 121%; growth at 0.1 µM (T47D [9]): 103%; growth at 1 µM (SK-MEL-28): 97%; growth at 1 µM (SK-MEL-5 [10]): 91%; growth at 1 µM (IGROV-1 [11]): 110%; growth at 1 µM (TK-10 [12]): 114%; growth at 1 µM (UO-31): 100%; growth at 10 µM (HOP-92): -41%; growth at 10 µM (M14): 2%; growth at 10 µM (BT-549): 5%; growth at 100 µM (T47D [13]): -54%
3 | Cc1nc2cc(O)c(O)cc2cc1Oc1ccc(NC(=O)Nc2ccc(Cl)c(Cl)c2)cc1 | 96 | 107 | 102 | 98 | 106 | 98 | 89 | 101 | 102 | 98 | 94 | 99 | 81 | 65 | 17 | 16 | – | – | – | – | GI50 (MDA-MB-468): 6.99 µM; TGI (MDA-MB-468): 17.4 µM; CC50 (MDA-MB-468; read-out: LC50 (the source's name)): > 32.5 µM
4 | COc1cc2cc(Oc3ccc(NC(=O)Nc4cc(C(F)(F)F)cc(C(F)(F)F)c4)cc3)c(C)nc2cc1OC | – | – | – | – | – | – | – | – | – | – | – | – | – | – | – | – | 101 | 93 | 96 | 92 | GI50 (MDA-MB-468): 1.08 µM; TGI (MDA-MB-468): 3.96 µM; growth at 0.1 µM (ACHN): 98%; growth at 0.1 µM (RXF 393): 99%; growth at 0.1 µM (TK-10 [8]): 89%; growth at 0.1 µM (T47D [9]): 95%; growth at 1 µM (SK-MEL-28): 59%; growth at 1 µM (SK-MEL-5 [10]): 84%; growth at 1 µM (IGROV-1 [11]): 31%; growth at 1 µM (TK-10 [12]): 81%; growth at 1 µM (UO-31): 19%; growth at 10 µM (HOP-92): -38%; growth at 10 µM (M14): -59%; growth at 10 µM (BT-549): -64%; growth at 100 µM (T47D [13]): -82%
